US20060069132A1, “Azolecarboxamide herbicides” (priority 2004, published 2006)
Read-outs that look alike come from different tables or passages of the source.

What was measured:
giant foxtail = assay: Test B pre-/postemergence herbicide test; assay type: in vivo, Setaria faberi; details: Setaria faberi, 336 h; for pest or weed control at 125 g/ha: 125 g ai/ha; for pest or weed control at 500 g/ha: 500 g ai/ha
Outline: (§1)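 Test chemicals in a non-phytotoxic solvent mixture with surfactant were applied preemergence to seeded species and postemergence to plants 2-18 cm tall (1- to 4-leaf stage); rice and barnyardgrass were also tested in a flooded paddy at the 2-leaf stage. Visual rating versus controls after 13-15 days in greenhouse, scale 0 (no effect) to 100 (complete control).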

large crabgrass = assay: Test B pre-/postemergence herbicide test; assay type: in vivo, Digitaria sanguinalis; details: Digitaria sanguinalis; for pest or weed control at 125 g/ha: 125 g ai/ha; for pest or weed control at 500 g/ha: 500 g ai/ha
Outline: as §1

blackgrass = assay: Test B postemergence herbicide test; assay type: in vivo, Alopecurus myosuroides; details: Alopecurus myosuroides, post-emergence, 336 h, postemergence, visual rating, scale 0 (no effect) to 100 (complete control), read-out: Blackgrass plant response rating
Outline: (§2)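 After treating 2-leaf paddy plants or 2–18 cm postemergence plants (1 to 4 leaves) with formulated chemical, researchers kept them in a greenhouse for 13–15 days. Effects were judged visually versus controls: 0 indicates none, 100 total control.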

wild oat = assay: Test B postemergence herbicide test; assay type: in vivo, Avena fatua; details: Avena fatua, post-emergence, 336 h, postemergence, visual rating, scale 0 (no effect) to 100 (complete control), read-out: Oat, Wild plant response rating
Outline: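 Treated at 2-leaf (paddy) or 1–4-leaf, 2–18 cm (postemergence); greenhouse 13–15 d; visual score vs control, 0 none to 100 complete control; dash = not tested.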

rice = assay: Test B flooded paddy test; assay type: in vivo, Oryza sativa; details: Oryza sativa, 336 h, 1000 g ai/ha, visual rating, scale 0 to 100 (0 no effect, 100 complete control), 13 to 15 days, read-out: Rice plant response rating
Outline: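 Paddy species grown to the 2-leaf stage under flooding; blackgrass sprayed postemergence at 2–18 cm (1- to 4-leaf stage). Plants kept in a greenhouse for 13 to 15 days, then visually rated against controls on 0 (no effect) to 100 (complete control).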

[1] = test system: small flower umbrella sedge; assay: Test B flooded paddy test; assay type: in vivo, Cyperus difformis; details: Cyperus difformis, 336 h, 1000 g ai/ha, visual rating, scale 0 to 100 (0 no effect, 100 complete control), 13 to 15 days, read-out: Sedge, Umbrella plant response rating
Outline: as §2

velvetleaf = assay: Test B pre-/postemergence herbicide test; assay type: in vivo, Abutilon theophrasti; details: Abutilon theophrasti, 336 h; for pest or weed control at 125 g/ha: 125 g ai/ha; for pest or weed control at 500 g/ha: 500 g ai/ha
Outline: as §1

lambsquarters = assay: Test B pre-/postemergence herbicide test; assay type: in vivo, Chenopodium album; details: Chenopodium album, 336 h; for pest or weed control at 125 g/ha: 125 g ai/ha; for pest or weed control at 500 g/ha: 500 g ai/ha
Outline: as §1

corn = assay: Test B pre-/postemergence herbicide test; assay type: in vivo, Zea mays; details: Zea mays; for plant injury at 125 g/ha: 125 g ai/ha
Outline: as §1

cocklebur = assay: Test B pre-/postemergence herbicide test; assay type: in vivo, Xanthium strumarium; details: Xanthium strumarium; for pest or weed control at 125 g/ha: 125 g ai/ha; for pest or weed control at 500 g/ha: 500 g ai/ha
Outline: (§3)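 Flooded paddy rice and barnyardgrass were treated at the 2-leaf stage; upland plantings received compound either on sown seed or on 1- to 4-leaf seedlings. All were kept 13–15 days in a greenhouse and scored visually, 0–100, relative to untreated plants.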

pigweed = assay: Test B pre-/postemergence herbicide test; assay type: in vivo, Amaranthus retroflexus; details: Amaranthus retroflexus, 336 h; for pest or weed control at 125 g/ha: 125 g ai/ha; for pest or weed control at 500 g/ha: 500 g ai/ha
Outline: as §1

barnyardgrass = assay: Test B pre-/postemergence herbicide test; assay type: in vivo, Echinochloa crus-galli; details: Echinochloa crus-galli; for pest or weed control at 125 g/ha: 125 g ai/ha; for pest or weed control at 500 g/ha: 500 g ai/ha
Outline: as §3

Surinam grass = assay: Test B pre-/postemergence herbicide test; assay type: in vivo, Urochloa decumbens; details: Urochloa decumbens; for pest or weed control at 125 g/ha: 125 g ai/ha; for pest or weed control at 500 g/ha: 500 g ai/ha
Outline: as §1

ducksalad = assay: Test B flooded paddy test; assay type: in vivo, Heteranthera limosa; details: Heteranthera limosa, 336 h, 1000 g ai/ha, visual rating, scale 0 to 100 (0 no effect, 100 complete control), 13 to 15 days, read-out: Ducksalad plant response rating
Outline: as §2

morningglory = assay: Test B pre-/postemergence herbicide test; assay type: in vivo, Ipomoea coccinea; details: Ipomoea, 336 h; for pest or weed control at 125 g/ha: 125 g ai/ha; for pest or weed control at 500 g/ha: 500 g ai/ha
Outline: as §3

[2] = post-emergence, postemergence, visual rating, scale 0 (no effect) to 100 (complete control), read-out: Foxtail, Giant plant response rating
[3] = post-emergence, postemergence, visual rating, scale 0 (no effect) to 100 (complete control), read-out: Crabgrass, Large plant response rating
[4] = post-emergence, postemergence, visual rating, scale 0 (no effect) to 100 (complete control), read-out: Velvetleaf plant response rating
[5] = post-emergence, postemergence, visual rating, scale 0 (no effect) to 100 (complete control), read-out: Lambsquarters plant response rating
[6] = post-emergence, postemergence, visual rating, scale 0 (no effect) to 100 (complete control), read-out: Cocklebur plant response rating
[7] = post-emergence, postemergence, visual rating, scale 0 (no effect) to 100 (complete control), read-out: Pigweed plant response rating
[8] = post-emergence, postemergence, visual rating, scale 0 (no effect) to 100 (complete control), read-out: Barnyardgrass plant response rating
[9] = post-emergence, postemergence, visual rating, scale 0 (no effect) to 100 (complete control), read-out: Surinam Grass plant response rating
[10] = post-emergence, postemergence, visual rating, scale 0 (no effect) to 100 (complete control), read-out: Morningglory plant response rating

CCNC(=O)c1cccc(NC(=O)c2nn(C(C)(C)C)cc2Br)c1 [Compound 221, 4-bromo-1-(1,1-dimethylethyl)-N-[3-[(ethylamino)carbonyl]phenyl]-1H-pyrazole-3-carboxamide]
pest or weed control at 125 g/ha (giant foxtail; [2]): 10% | pest or weed control at 500 g/ha (giant foxtail; [2]): 10% | pest or weed control at 125 g/ha (giant foxtail; pre-emergence, 0 = no effect, 100 = complete control, read-out: Foxtail, Giant plant response rating (0 to 100 scale)): 0% | pest or weed control at 500 g/ha (giant foxtail; pre-emergence, visual rating, 0 = no effect, 100 = complete control, read-out: Plant response rating, Foxtail, Giant): 70% | pest or weed control at 125 g/ha (large crabgrass; [3]): 0% | pest or weed control at 500 g/ha (large crabgrass; [3]): 10% | pest or weed control at 125 g/ha (large crabgrass; pre-emergence, 0 = no effect, 100 = complete control, read-out: Crabgrass, Large plant response rating (0 to 100 scale)): 80% | pest or weed control at 500 g/ha (large crabgrass; pre-emergence, visual rating, 0 = no effect, 100 = complete control, read-out: Plant response rating, Crabgrass, Large): 100% | pest or weed control at 125 g/ha (blackgrass; 125 g ai/ha): 0% | pest or weed control at 500 g/ha (blackgrass; 500 g ai/ha): 0% | pest or weed control at 125 g/ha (wild oat; 125 g ai/ha): 0% | pest or weed control at 500 g/ha (wild oat; 500 g ai/ha): 10% | plant injury at 1000 g/ha (rice): 20% | pest or weed control at 1000 g/ha [1]: 80% | pest or weed control at 125 g/ha (velvetleaf; [4]): 0% | pest or weed control at 500 g/ha (velvetleaf; [4]): 0% | pest or weed control at 125 g/ha (velvetleaf; pre-emergence, 0 = no effect, 100 = complete control, read-out: Velvetleaf plant response rating (0 to 100 scale)): 0% | pest or weed control at 500 g/ha (velvetleaf; pre-emergence, visual rating, 0 = no effect, 100 = complete control, read-out: Plant response rating, Velvetleaf): 50% | pest or weed control at 125 g/ha (lambsquarters; [5]): 0% | pest or weed control at 500 g/ha (lambsquarters; [5]): 20% | pest or weed control at 125 g/ha (lambsquarters; pre-emergence, 0 = no effect, 100 = complete control, read-out: Lambsquarters plant response rating (0 to 100 scale)): 20% | pest or weed control at 500 g/ha (lambsquarters; pre-emergence, visual rating, 0 = no effect, 100 = complete control, read-out: Plant response rating, Lambsquarters): 100% | plant injury at 125 g/ha (corn; post-emergence, postemergence, visual rating, scale 0 (no effect) to 100 (complete control), read-out: Corn plant response rating): 10% | plant injury at 500 g/ha (corn; post-emergence, postemergence, 500 g ai/ha, visual rating, scale 0 (no effect) to 100 (complete control), read-out: Corn plant response rating): 10% | plant injury at 125 g/ha (corn; pre-emergence, 0 = no effect, 100 = complete control, read-out: Corn plant response rating (0 to 100 scale)): 0% | Corn plant response rating (crop injury, 0 = no effect, 100 = complete kill) at 500 g/ha (corn; pre-emergence, 500 g ai/ha, visual rating, 0 = no effect, 100 = complete control): 0% | pest or weed control at 125 g/ha (cocklebur; [6]): 0% | pest or weed control at 500 g/ha (cocklebur; [6]): 20% | pest or weed control at 125 g/ha (cocklebur; pre-emergence, 0 = no effect, 100 = complete control, read-out: Cocklebur plant response rating (0 to 100 scale)): 0% | pest or weed control at 500 g/ha (cocklebur; pre-emergence, visual rating, 0 = no effect, 100 = complete control, read-out: Plant response rating, Cocklebur): 0% | pest or weed control at 125 g/ha (pigweed; [7]): 10% | pest or weed control at 500 g/ha (pigweed; [7]): 20% | pest or weed control at 125 g/ha (pigweed; pre-emergence, 0 = no effect, 100 = complete control, read-out: Pigweed plant response rating (0 to 100 scale)): 50% | pest or weed control at 500 g/ha (pigweed; pre-emergence, visual rating, 0 = no effect, 100 = complete control, read-out: Plant response rating, Pigweed): 100% | pest or weed control at 125 g/ha (barnyardgrass; [8]): 0% | pest or weed control at 500 g/ha (barnyardgrass; [8]): 10% | pest or weed control at 125 g/ha (barnyardgrass; pre-emergence, 0 = no effect, 100 = complete control, read-out: Barnyardgrass plant response rating (0 to 100 scale)): 0% | pest or weed control at 500 g/ha (barnyardgrass; pre-emergence, visual rating, 0 = no effect, 100 = complete control, read-out: Plant response rating, Barnyardgrass): 90% | pest or weed control at 125 g/ha (Surinam grass; [9]): 0% | pest or weed control at 500 g/ha (Surinam grass; [9]): 10% | pest or weed control at 125 g/ha (Surinam grass; pre-emergence, 0 = no effect, 100 = complete control, read-out: Surinam Grass plant response rating (0 to 100 scale)): 0% | pest or weed control at 500 g/ha (Surinam grass; pre-emergence, visual rating, 0 = no effect, 100 = complete control, read-out: Plant response rating, Surinam Grass): 30% | pest or weed control at 1000 g/ha (ducksalad): 50% | pest or weed control at 125 g/ha (morningglory; [10]): 0% | pest or weed control at 500 g/ha (morningglory; [10]): 0% | pest or weed control at 125 g/ha (morningglory; pre-emergence, 0 = no effect, 100 = complete control, read-out: Morningglory plant response rating (0 to 100 scale)): 0% | pest or weed control at 500 g/ha (morningglory; pre-emergence, visual rating, 0 = no effect, 100 = complete control, read-out: Plant response rating, Morningglory): 0%
